Counter-ions that a name gives are not always drawn.

T1 sequence (P04629 440-796 limits assumed): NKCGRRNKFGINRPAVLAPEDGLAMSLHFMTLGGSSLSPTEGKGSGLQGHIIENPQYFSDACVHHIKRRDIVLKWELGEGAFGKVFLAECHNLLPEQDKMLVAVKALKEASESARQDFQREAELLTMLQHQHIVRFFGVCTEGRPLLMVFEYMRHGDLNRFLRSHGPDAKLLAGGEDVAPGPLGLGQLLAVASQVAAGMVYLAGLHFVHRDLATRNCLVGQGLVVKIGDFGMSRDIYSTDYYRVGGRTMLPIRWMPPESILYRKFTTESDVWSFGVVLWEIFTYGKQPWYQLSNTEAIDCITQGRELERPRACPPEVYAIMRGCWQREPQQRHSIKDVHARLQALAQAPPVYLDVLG

The assay addresses T1, His-tagged recombinant human TrkA (Homo sapiens, UniProt P04629).
T1 construct: 6HIS tagged cytoplasmic domain from Invitrogen, Catalog No. PV3144; purchased Invitrogen PV3144
As to the kind of experiment: TrkA LanthaScreen Eu Kinase Binding Assay. As to conditions: averaged IC50; TR-FRET binding assay, 60 min, 22° C.; read-out: TrkA Enzyme IC50. The protocol: TrkA binding activity was determined in a TrkA LanthaScreen™ Eu Kinase Binding Assay. 5 nM His-tagged recombinant human TrkA (6HIS tagged cytoplasmic domain from Invitrogen, Catalog No. PV3144) was incubated with 4 nM Alexa-Fluor® Tracer 236 (Invitrogen Cat. No. PV5592), 2 nM biotinylated anti-His (Invitrogen Cat. No. PV6090), and 2 nM europium-labeled Streptavidin (Invitrogen Cat. No. PV5899), in buffer (25 mM MOPS, pH 7.5, 5 mM MgCl2, 0.005% Triton X-100). Three fold serial dilutions of compounds of the invention in DMSO were added to a final percentage of 2% DMSO. After 60-minute incubation at 22° C., the reaction was measured using the EnVision multimode plate reader (PerkinElmer) via TR-FRET dual wavelength detection at […]. The percent of control was calculated using a ratiometric emission factor. The IC50 values were determined by fitting a four parameter model to the percent of control data.
Table A provides averaged IC50 values for compounds of the invention when tested in the assay of Example A, where A represents an averaged IC50 value <100 nM; B represents an averaged IC50 value from 100 to 1,000 nM; and C represents an averaged IC50 value from 1,000 to 10,000 nM.
Take `Cc1c(-c2ccc(=O)n(C)c2)nn(-c2ccccc2)c1NC(=O)Nc1ccc(Cl)c2ccccc12` [Example 1, 1-(4-chloronaphthalen-1-yl)-3-(4-methyl-3-(1-methyl-6-oxo-1,6-dihydropyridin-3-yl)-1-phenyl-1H-pyrazol-5-yl)urea]: the IC50 (in general, the concentration needed to halve the response being measured) is less than 100 nM.

Take `O=C(Nc1ccc(Cl)c2ccccc12)Nc1c2c(nn1-c1ccccc1)CCC2` [Example 2, 1-(4-chloronaphthalen-1-yl)-3-(2-phenyl-2,4,5,6-tetrahydrocyclopenta[c]pyrazol-3-yl)urea]: the IC50 was less than 100 nM.

For `COCc1cc2c(NC(=O)Nc3c(C)c(-c4cnn(C)c4)nn3-c3ccccc3)cccc2cn1` [Example 3, 1-(1′,4-dimethyl-1-phenyl-1H,1′H-[3,4′-bipyrazol]-5-yl)-3-(3-(methoxymethyl)isoquinolin-5-yl)urea trifluoroacetate], the IC50 is less than 100 nM.

As for `COCc1cc2c(NC(=O)Nc3c(C)c(-c4cnn(C)c4)nn3-c3ccccc3)c(Cl)ccc2cn1` [Example 4, 1-(6-chloro-3-(methoxymethyl)isoquinolin-5-yl)-3-(1′,4-dimethyl-1-phenyl-1H,1′H-[3,4′-bipyrazol]-5-yl)urea], the IC50 is 100 to 1000 nM.

Turning to `COCc1cc2c(NC(=O)Nc3c(C)c(-c4cnn(C)c4)nn3-c3ccccc3)ccc(Br)c2cn1` [Example 5, 1-(8-bromo-3-(methoxymethyl)isoquinolin-5-yl)-3-(1′,4-dimethyl-1-phenyl-1H,1′H-[3,4′-bipyrazol]-5-yl)urea], the IC50 was less than 100 nM.

Regarding `COCc1cc2c(NC(=O)Nc3c(C)c(-c4cnn(C)c4)nn3-c3ccccc3)ccc(Cl)c2cn1` [Example 6, 1-(8-chloro-3-(methoxymethyl)isoquinolin-5-yl)-3-(1′,4-dimethyl-1-phenyl-1H,1′H-[3,4′-bipyrazol]-5-yl)urea], the IC50 is less than 100 nM.

As to `Cc1c(C(N)=O)nn(-c2ccccc2)c1NC(=O)Nc1ccc(Cl)c2ccccc12` [Example 7, 5-(3-(4-chloronaphthalen-1-yl)ureido)-4-methyl-1-phenyl-1H-pyrazole-3-carboxamide], the IC50 is less than 100 nM.

Take `CNC(=O)c1nn(-c2ccccc2)c(NC(=O)Nc2ccc(Cl)c3ccccc23)c1C` [Example 8, 5-(3-(4-chloronaphthalen-1-yl)ureido)-N,4-dimethyl-1-phenyl-1H-pyrazole-3-carboxamide]: the IC50 was less than 100 nM.

On to `Cc1c(-c2cnn(C)c2)nn(-c2ccccc2)c1NC(=O)Nc1ccc(Cl)c2ccccc12` [Example 9, 1-(4-chloronaphthalen-1-yl)-3-(1′,4-dimethyl-1-phenyl-1H,1′H-[3,4′-bipyrazol]-5-yl)urea], for which the IC50 is less than 100 nM.

Consider `Cc1c(-c2cnn(C)c2)nn(-c2ccccc2)c1NC(=O)Nc1cccc2ccccc12` [Example 10, 1-(1′,4-dimethyl-1-phenyl-1H,1′H-[3,4′-bipyrazol]-5-yl)-3-(naphthalen-1-yl)urea], for which the IC50 was in the range of 100 to 1000 nM.

As for `O=C(Nc1ccc(Cl)c2ccccc12)Nc1c(Cl)c(OCC2CCNCC2)nn1-c1ccccc1` [Example 11, 1-(4-chloro-1-phenyl-3-(piperidin-4-ylmethoxy)-1H-pyrazol-5-yl)-3-(4-chloronaphthalen-1-yl)urea hydrochloride], the IC50 is less than 100 nM.

As to `Cc1c(C2CCNCC2)nn(-c2ccccc2)c1NC(=O)Nc1ccc(Cl)c2ccccc12` [Example 12, 1-(4-chloronaphthalen-1-yl)-3-(4-methyl-1-phenyl-3-(piperidin-4-yl)-1H-pyrazol-5-yl)urea hydrochloride], the IC50 is less than 100 nM.

Regarding `Cc1c(C2CCN(CC(F)(F)F)CC2)nn(-c2ccccc2)c1NC(=O)Nc1ccc(Cl)c2ccccc12` [Example 13, 1-(4-chloronaphthalen-1-yl)-3-(4-methyl-1-phenyl-3-(1-(2,2,2-trifluoroethyl)piperidin-4-yl)-1H-pyrazol-5-yl)urea], the IC50 is less than 100 nM.

As to `Cc1c(C2CCN(C)CC2)nn(-c2ccccc2)c1NC(=O)Nc1ccc(Cl)c2ccccc12` [Example 14, 1-(4-chloronaphthalen-1-yl)-3-(4-methyl-3-(1-methylpiperidin-4-yl)-1-phenyl-1H-pyrazol-5-yl)urea hydrochloride], the IC50 is less than 100 nM.

On to `COC[C@H](O)COc1nn(-c2ccccc2)c(NC(=O)Nc2ccc(Cl)c3ccccc23)c1C` [Example 15, (S)-1-(4-chloronaphthalen-1-yl)-3-(3-(2-hydroxy-3-methoxypropoxy)-4-methyl-1-phenyl-1H-pyrazol-5-yl)urea], for which the IC50 is less than 100 nM.

For `COCc1ccc2cccc(NC(=O)Nc3c(C)c(-c4ccc(=O)n(C)c4)nn3-c3ccccc3)c2c1` [Example 17, 1-(7-(methoxymethyl)naphthalen-1-yl)-3-(4-methyl-3-(1-methyl-6-oxo-1,6-dihydropyridin-3-yl)-1-phenyl-1H-pyrazol-5-yl)urea], the IC50 was less than 100 nM.

Regarding `COCc1ccc2ccc(Cl)c(NC(=O)Nc3c(C)c(-c4cnn(C)c4)nn3-c3ccccc3)c2c1` [Example 18, 1-(2-chloro-7-(methoxymethyl)naphthalen-1-yl)-3-(1′,4-dimethyl-1-phenyl-1H,1′H-[3,4′-bipyrazol]-5-yl)urea], the half-inhibitory concentration (IC50) was less than 100 nM.

For `COCc1ccc2c(Cl)ccc(NC(=O)Nc3c(C)c(-c4cnn(C)c4)nn3-c3ccccc3)c2c1` [Example 19, 1-(4-chloro-7-(methoxymethyl)naphthalen-1-yl)-3-(1′,4-dimethyl-1-phenyl-1H,1′H-[3,4′-bipyrazol]-5-yl)urea], the IC50 is less than 100 nM.

Consider `COCc1ccc2c(Cl)ccc(NC(=O)Nc3c(C)c(C4CCN(C)CC4)nn3-c3ccccc3)c2c1` [Example 20, 1-(4-chloro-7-(methoxymethyl)naphthalen-1-yl)-3-(4-methyl-3-(1-methylpiperidin-4-yl)-1-phenyl-1H-pyrazol-5-yl)urea hydrochloride], for which the IC50 is less than 100 nM.

Consider `COCc1ccc2c(Cl)ccc(NC(=O)Nc3c(C)c(-c4ccc(=O)n(C)c4)nn3-c3ccccc3)c2c1` [Example 21, 1-(4-chloro-7-(methoxymethyl)naphthalen-1-yl)-3-(4-methyl-3-(1-methyl-6-oxo-1,6-dihydropyridin-3-yl)-1-phenyl-1H-pyrazol-5-yl)urea], for which the IC50 is less than 100 nM.

For `Cc1c(C2CCNCC2)nn(-c2ccccc2)c1NC(=O)Nc1ncc(Cl)c2ccccc12` [Example 22, 1-(4-chloroisoquinolin-1-yl)-3-(4-methyl-1-phenyl-3-(piperidin-4-yl)-1H-pyrazol-5-yl)urea hydrochloride], the IC50 was in the range of 1000 to 10000 nM.

Turning to `Cc1c(-c2cnn(C)c2)nn(-c2ccccc2)c1NC(=O)Nc1ncc(Cl)c2ccccc12` [Example 23, 1-(4-chloroisoquinolin-1-yl)-3-(1′,4-dimethyl-1-phenyl-1H,1′H-[3,4′-bipyrazol]-5-yl)urea], the IC50 fell in the range of 1000 to 10000 nM.

Consider `Cc1c(-c2cnn(C)c2)nn(-c2ccccc2)c1NC(=O)Nc1cncc2ccccc12` [Example 24, 1-(1′,4-dimethyl-1-phenyl-1H,1′H-3,4′-bipyrazol-5-yl)-3-(isoquinolin-4-yl)urea], for which the IC50 lay within 1000 to 10000 nM.

`Cc1c(-c2ccc(=O)n(C)c2)nn(-c2ccccc2)c1NC(=O)Nc1cncc2ccccc12` [Example 25, 1-(isoquinolin-4-yl)-3-(4-methyl-3-(1-methyl-6-oxo-1,6-dihydropyridin-3-yl)-1-phenyl-1H-pyrazol-5-yl)urea]: the IC50 lay within 100 to 1000 nM.

Values taken from patent publication US9546156B2, “N-bicyclic aryl,N'-pyrazolyl urea, thiourea, guanidine cyanoguanidine compounds as TrkA kinase inhibitors” (Array BioPharma Inc., priority 2012, dated 2017).
